{"source": "ChEMBL document CHEMBL2146453", "about": "“Synthesis of novel ursolic acid heterocyclic derivatives with improved abilities of antiproliferation and induction of p53, p21waf1 and NOXA in pancreatic cancer cells” (Bioorg Med Chem, 2012)", "key": {"[1]": {"system": "ASPC1", "test": "Cell cycle arrest in human AsPC1 cells assessed as G1 phase cells at 6 uM after 24 hrs by flow cytometric analysis (reference value: 25.4%)", "format": "functional"}, "[2]": {"system": "MIA PaCa-2", "test": "Cytotoxicity against human MIAPaCa2 cells after 72 hrs by MTT assay", "format": "functional, cell-based", "settings": "MIA PaCa-2, 72 h"}, "[3]": {"system": "PANC-1", "test": "Cytotoxicity against human PANC1 cells after 72 hrs by MTT assay", "format": "functional, cell-based", "settings": "PANC-1, 72 h"}, "[4]": {"system": "ASPC1", "test": "Ratio of ursolic acid IC50 to compound IC50 for human AsPC1 cells", "format": "functional"}, "[5]": {"system": "ASPC1", "test": "Cell cycle arrest in human AsPC1 cells assessed as G2/M phase cells at 10 uM after 24 hrs by flow cytometric analysis (reference value: 20.7%)", "format": "functional"}, "[6]": {"system": "ASPC1", "test": "Upregulation of NOXA in human AsPC1 cells at 6 to 10 uM after 24 hrs by Western blot analysis", "format": "functional, cell-based"}, "[7]": {"system": "PC-3", "test": "Cytotoxicity against human PC3 cells after 72 hrs by MTT assay", "format": "functional, cell-based", "settings": "PC-3, 72 h"}, "[8]": {"system": "ASPC1", "test": "Cytotoxicity against human AsPC1 cells after 72 hrs by MTT assay", "format": "functional, cell-based", "settings": "ASPC1, 72 h"}, "[9]": {"system": "HepG2", "test": "Cytotoxicity against human HepG2 cells after 72 hrs by MTT assay", "format": "functional, cell-based", "settings": "HepG2, 72 h"}, "[10]": {"system": "ASPC1", "test": "Cell cycle arrest in human AsPC1 cells assessed as S phase cells at 6 uM after 24 hrs by flow cytometric analysis (reference value: 12.6%)", "format": "functional"}, "[11]": {"system": "ASPC1", "test": "Induction of apoptosis in human AsPC1 cells assessed as sub-G1 phase cells at 4 uM after 24 hrs by flow cytometric analysis (reference value: 1%)", "format": "functional"}, "[12]": {"system": "ASPC1", "test": "Cell cycle arrest in human AsPC1 cells assessed as S phase cells at 2 uM after 24 hrs by flow cytometric analysis (reference value: 12.6%)", "format": "functional"}, "[13]": {"system": "ASPC1", "test": "Cell cycle arrest in human AsPC1 cells assessed as G1 phase cells at 2 uM after 24 hrs by flow cytometric analysis (reference value: 25.4%)", "format": "functional"}, "[14]": {"system": "A549", "test": "Cytotoxicity against human A549 cells after 72 hrs by MTT assay", "format": "functional, cell-based", "settings": "A549, 72 h"}, "[15]": {"system": "ASPC1", "test": "Induction of apoptosis in human AsPC1 cells assessed as sub-G1 phase cells at 10 uM after 24 hrs by flow cytometric analysis (reference value: 1%)", "format": "functional"}, "[16]": {"system": "ASPC1", "test": "Cell cycle arrest in human AsPC1 cells assessed as G2/M phase cells at 6 uM after 24 hrs by flow cytometric analysis (reference value: 20.7%)", "format": "functional"}, "[17]": {"system": "ASPC1", "test": "Downregulation of Mcl1 in human AsPC1 cells at 2 to 10 uM after 24 hrs by Western blot analysis", "format": "functional, cell-based"}, "[18]": {"system": "ASPC1", "test": "Induction of apoptosis in human AsPC1 cells assessed as sub-G1 phase cells at 6 uM after 24 hrs by flow cytometric analysis (reference value: 1%)", "format": "functional"}, "[19]": {"system": "ASPC1", "test": "Cell cycle arrest in human AsPC1 cells assessed as G2/M phase cells at 8 uM after 24 hrs by flow cytometric analysis (reference value: 20.7%)", "format": "functional"}, "[20]": {"system": "ASPC1", "test": "Cell cycle arrest in human AsPC1 cells assessed as S phase cells at 4 uM after 24 hrs by flow cytometric analysis (reference value: 12.6%)", "format": "functional"}, "[21]": {"system": "ASPC1", "test": "Cell cycle arrest in human AsPC1 cells assessed as S phase cells at 10 uM after 24 hrs by flow cytometric analysis (reference value: 12.6%)", "format": "functional"}, "[22]": {"system": "ASPC1", "test": "Upregulation of p21 in human AsPC1 cells at 6 to 10 uM after 24 hrs by Western blot analysis", "format": "functional, cell-based"}, "[23]": {"system": "ASPC1", "test": "Cell cycle arrest in human AsPC1 cells assessed as G2/M phase cells at 4 uM after 24 hrs by flow cytometric analysis (reference value: 20.7%)", "format": "functional"}, "[24]": {"system": "ASPC1", "test": "Cell cycle arrest in human AsPC1 cells assessed as G1 phase cells at 4 uM after 24 hrs by flow cytometric analysis (reference value: 25.4%)", "format": "functional"}, "[25]": {"system": "ASPC1", "test": "Induction of apoptosis in human AsPC1 cells assessed as sub-G1 phase cells at 8 uM after 24 hrs by flow cytometric analysis (reference value: 1%)", "format": "functional"}, "[26]": {"system": "MCF7", "test": "Cytotoxicity against human MCF7 cells after 72 hrs by MTT assay", "format": "functional, cell-based", "settings": "MCF7, 72 h"}, "[27]": {"system": "ASPC1", "test": "Upregulation of p53 in human AsPC1 cells at 2 to 10 uM after 24 hrs by Western blot analysis", "format": "functional, cell-based"}, "[28]": {"system": "ASPC1", "test": "Cell cycle arrest in human AsPC1 cells assessed as G1 phase cells at 10 uM after 24 hrs by flow cytometric analysis (reference value: 25.4%)", "format": "functional"}, "[29]": {"system": "ASPC1", "test": "Cell cycle arrest in human AsPC1 cells assessed as G1 phase cells at 8 uM after 24 hrs by flow cytometric analysis (reference value: 25.4%)", "format": "functional"}, "[30]": {"system": "ASPC1", "test": "Cell cycle arrest in human AsPC1 cells assessed as G2/M phase cells at 2 uM after 24 hrs by flow cytometric analysis (reference value: 20.7%)", "format": "functional"}, "[31]": {"system": "ASPC1", "test": "Induction of apoptosis in human AsPC1 cells assessed as sub-G1 phase cells at 2 uM after 24 hrs by flow cytometric analysis (reference value: 1%)", "format": "functional"}, "[32]": {"system": "ASPC1", "test": "Cell cycle arrest in human AsPC1 cells assessed as S phase cells at 8 uM after 24 hrs by flow cytometric analysis (reference value: 12.6%)", "format": "functional"}}, "note": "Active and inactive are the calls of the source. No cut-off for these calls is given here."}
{"smiles": "COC(=O)[C@]12CC[C@@H](C)[C@H](C)[C@H]1C1=CC[C@@H]3[C@@]4(C)C/C(=C/n5cnnc5)C(=O)C(C)(C)[C@@H]4CC[C@@]3(C)[C@]1(C)CC2", "values": [{"measurement": "Activity", "setting": "[1]", "value": 36.6, "unit": "%"}, {"measurement": "IC50", "setting": "[2]", "value": 4, "unit": "µM"}, {"measurement": "IC50", "setting": "[3]", "value": 3.5, "unit": "µM"}, {"measurement": "Ratio IC50", "setting": "[4]", "value": 7}, {"measurement": "Activity", "setting": "[5]", "value": 28.8, "unit": "%"}, {"measurement": "Activity", "setting": "[6]", "value": "Active"}, {"measurement": "IC50", "setting": "[7]", "value": 3, "unit": "µM"}, {"measurement": "IC50", "setting": "[8]", "value": 1.9, "unit": "µM"}, {"measurement": "IC50", "setting": "[9]", "value": 3.2, "unit": "µM"}, {"measurement": "Activity", "setting": "[10]", "value": 9.5, "unit": "%"}, {"measurement": "Activity", "setting": "[11]", "value": 0.5, "unit": "%"}, {"measurement": "Activity", "setting": "[12]", "value": 9.1, "unit": "%"}, {"measurement": "Activity", "setting": "[13]", "value": 23.9, "unit": "%"}, {"measurement": "IC50", "setting": "[14]", "value": 4.9, "unit": "µM"}, {"measurement": "Activity", "setting": "[15]", "value": 13.2, "unit": "%"}, {"measurement": "Activity", "setting": "[16]", "value": 24.1, "unit": "%"}, {"measurement": "Activity", "setting": "[17]", "value": "inactive"}, {"measurement": "Activity", "setting": "[18]", "value": 1.2, "unit": "%"}, {"measurement": "Activity", "setting": "[19]", "value": 23.4, "unit": "%"}, {"measurement": "Activity", "setting": "[20]", "value": 9.6, "unit": "%"}, {"measurement": "Activity", "setting": "[21]", "value": 10.5, "unit": "%"}, {"measurement": "Activity", "setting": "[22]", "value": "Active"}, {"measurement": "Activity", "setting": "[23]", "value": 14.7, "unit": "%"}, {"measurement": "Activity", "setting": "[24]", "value": 27.9, "unit": "%"}, {"measurement": "Activity", "setting": "[25]", "value": 3.4, "unit": "%"}, {"measurement": "IC50", "setting": "[26]", "value": 2.3, "unit": "µM"}, {"measurement": "Activity", "setting": "[27]", "value": "Active"}, {"measurement": "Activity", "setting": "[28]", "value": 27.3, "unit": "%"}, {"measurement": "Activity", "setting": "[29]", "value": 31.9, "unit": "%"}, {"measurement": "Activity", "setting": "[30]", "value": 14.9, "unit": "%"}, {"measurement": "Activity", "setting": "[31]", "value": 0.7, "unit": "%"}, {"measurement": "Activity", "setting": "[32]", "value": 10.1, "unit": "%"}]}
